Data published in patent publication US12287322B2, “Composition for detecting hydrogen sulfide or measuring hydrogen sulfide concentration and composition comprising same as effective ingredient for diagnosing or imaging in vivo inflammation, tissues having hypoxic damage, or cancer” (SEOUL NATIONAL UNIVERSITY R&DB FOUNDATION, priority 2018, dated 2025).

Assays:
[1] = tested on: reperfused brain after middle cerebral artery occlusion; assay: Autoradiography of brain reperfused after middle cerebral artery occlusion; assay type: in vivo, mouse; conditions: 2 hours occlusion, 12 hours recovery, 1 mCi tail vein, brain extracted after 1 hour, compared with TTC staining, FIG. 11
[2] = tested on: inflamed tissue where hydrogen sulfide was generated (carrageenan hind paw); assay: SPECT-CT imaging of carrageenan-inflamed tissue where hydrogen sulfide is produced; assay type: in vivo; conditions: mouse, 300 μCi tail vein 4 hours after 1% carrageenan, SPECT-CT after 1 hour, FIG. 10
Description: It has been reported that hydrogen sulfide was generated in the inflamed tissue induced by the administration of carrageenan (Li L, Bhatia M, Zhu Y Z, et al. FASEB J. (2005) 19:1196-1198; Bhatia M, Sidhapuriwala J, Moochhala S M, et al. Br J Pharmacol. (2005) 145:141-144.). Accordingly, the following experiment was performed to confirm whether the imaging of the inflamed tissue where hydrogen sulfide was generated was possible when the ^99mTc-alpha-hydroxy acid according to the present invention was administered.
30 μL of physiological saline containing 1% carrageenan was injected into the right hind paw of a mouse, and 30 μL of physiological saline was injected into the left hind paw of the mouse.

[3] = Reaction of ^99mTc-alpha-hydroxy acid with glutathione, insoluble substances by ITLC; conditions: 4 mM glutathione in 0.2 M sodium phosphate buffer pH 7.4, 37° C., 15 minutes
Description: (§1) Particularly, the ^99mTc-alpha-hydroxy acid prepared in Example 1 was diluted 5 times with physiological saline, and then 100 μL of each diluent was taken, to which 100 μL of each of 0.2 M sodium phosphate buffer (pH 7.4) containing 0.4 mM NaHS, 4 mM glutathione, 0.4 mM cysteine, 0.4 mM sodium sulfite, 0.4 mM sodium sulfate, 0.4 mM sodium thiosulfate, and 0.4 mM NONOate (NO generating reagent) was added, followed by reaction at 37° C. for 15 minutes. Then, ITLC was developed with physiological saline to determine the percentage of the radioactivity remaining at the origin.

[4] = Reaction of ^99mTc-alpha-hydroxy acid with cysteine, insoluble substances by ITLC; conditions: 0.4 mM cysteine in 0.2 M sodium phosphate buffer pH 7.4, 37° C., 15 minutes
Description: as §1

[5] = Reaction of ^99mTc-alpha-hydroxy acid with sodium sulfite, insoluble substances by ITLC; conditions: 0.4 mM sodium sulfite in 0.2 M sodium phosphate buffer pH 7.4, 37° C., 15 minutes
Description: as §1

[6] = Reaction of ^99mTc-alpha-hydroxy acid with sodium sulfate, insoluble substances by ITLC; conditions: 0.4 mM sodium sulfate in 0.2 M sodium phosphate buffer pH 7.4, 37° C., 15 minutes
Description: as §1

[7] = Reaction of ^99mTc-alpha-hydroxy acid with sodium thiosulfate, insoluble substances by ITLC; conditions: 0.4 mM sodium thiosulfate in 0.2 M sodium phosphate buffer pH 7.4, 37° C., 15 minutes
Description: as §1

[8] = Reaction of ^99mTc-alpha-hydroxy acid with NO (NONOate), insoluble substances by ITLC; conditions: 0.4 mM NONOate in 0.2 M sodium phosphate buffer pH 7.4, 37° C., 15 minutes
Description: as §1

[9] = ^99mTc-alpha-hydroxy acid in phosphate buffer alone, insoluble substances by ITLC; conditions: 0.2 M sodium phosphate buffer pH 7.4 alone, 37° C., 15 minutes
Description: as §1

[10] = Reaction of ^99mTc-alpha-hydroxy acid with NaHS, insoluble substances by ITLC; conditions: 0.4 mM NaHS in 0.2 M sodium phosphate buffer pH 7.4, 37° C., 15 minutes; radioactivity at origin, ITLC saline
Excerpt: Then, ITLC was developed with physiological saline to determine the percentage of the radioactivity remaining at the origin.

hydrogen sulfide in paw = assay: Hydrogen sulfide concentration in inflamed area (DMPD/FeCl3, absorbance 665 nm); assay type: in vivo; conditions: mouse paw, 4 hours after 30 μL 1% carrageenan, n=3
Description: In order to confirm that the concentration of hydrogen sulfide in the inflamed area was higher than the concentration of hydrogen sulfide in the normal area, it was measured as follows using a method described in the literature (A D Ang, A Konigstorfer, G I Giles, M Bhatia. Adv Biol Chem, 2012, 2:360-365). After 4 hours, the mouse was euthanized with carbon dioxide gas, and the ankle was cut and the weight was measured. 500 μL of 50 mM sodium carbonate buffer (pH 9) chilled with ice was added thereto and homogenized for 30 seconds gently, 1 minute 30 seconds moderately, and 30 seconds vigorously. After centrifugation at 1200×g for 5 minutes, the supernatant was obtained, to which 400 μL of a mixed solution of 350 μL of 1% zinc acetate and 50 μL of 1.5 M sodium hydroxide was added, followed by mixing well. After centrifugation at 1200×g for 5 minutes, the supernatant was discarded. To the precipitated pellet, 1 mL of distilled water saturated with nitrogen was added, which was mixed by vortexing for 1 minute. After centrifugation at 1200×g for 5 minutes, the supernatant was discarded. […] After reacting at room temperature for 15 minutes, absorbance was measured at 665 nm. A standard quantification curve was drawn with a standard sample measured by the same method, and then quantified.

Row | Compound | distribution of radioactivity in brain sections [1] | radioactivity of the inflamed area versus area administered with physiological saline [2] | percentage of insoluble substances produced after reaction with Glutathione [3] | percentage of insoluble substances produced after reaction with Cysteine [4] | percentage of insoluble substances produced after reaction with Sodium sulfite [5] | percentage of insoluble substances produced after reaction with Sodium sulfate [6] | percentage of insoluble substances produced after reaction with Thiosodium sulfate [7] | percentage of insoluble substances produced after reaction with NO [8] | percentage of insoluble substances produced in Buffer [9] | percentage of insoluble substances produced after reaction with NaHS [10] | concentration of hydrogen sulfide in the paws (hydrogen sulfide in paw)
1 | OC[C@H]1OC(O)[C@H]([18F])[C@@H](O)[C@@H]1O (stereo partly shown) [[^18F] FDG, reference compound] | almost overlapped with the red area stained by TTC | – | – | – | – | – | – | – | – | – | –
2 | O=C1[O][99Tc-]2(=[O])([O]C(=O)C(C(O)C(O)C(O)C(O)CO)[O]2)[O]C1C(O)C(O)C(O)C(O)CO (stereo not shown) [^99mTc-glucoheptonate] | – | clearly higher | – | – | – | – | – | – | – | – | –
3 | O=C1[O][99Tc-]2(=[O])([O]C(=O)[C@@H]([C@@H](O)[C@H](O)[C@H](O)CO)[O]2)[O][C@@H]1[C@@H](O)[C@H](O)[C@H](O)CO [^99mTc-gluconate] | ingested at the boundary area rather than completely dead brain tissues and the normal brain tissues | clearly higher | 12.0 ± 2.4% | 5.1 ± 0.6% | 6.4 ± 0.7% | 7.9 ± 1.5% | 6.5 ± 1.0% | 6.1 ± 1.0% | 8.7 ± 1.8% | – | –
4 | ^99mTc-citrate | – | – | 7.5 ± 1.7% | 2.1 ± 0.2% | 7.8 ± 0.7% | 8.0 ± 0.5% | 5.5 ± 0.1% | 5.6 ± 0.4% | 4.0 ± 0.1% | 8.3±1.0% | –
5 | ^99mTc-glucarate | – | – | 13.4 ± 2.7% | 6.4 ± 1.7% | 5.5 ± 0.8% | 4.6 ± 0.5% | 5.6 ± 0.3% | 4.7 ± 0.7% | 4.6 ± 0.5% | 37.0±4.7% | –
6 | carrageenan | – | – | – | – | – | – | – | – | – | – | 43.7 ± 3.5 µM
